Results: ChEMBL document CHEMBL3259785, “Recent advances in the discovery of small molecules targeting exchange proteins directly activated by cAMP (EPAC)” (J Med Chem, 2014)

How the values were obtained:
[1] = molecular target: T1, Rap guanine nucleotide exchange factor 4 (Homo sapiens, UniProt Q8WZA2); assay: Displacement of 8-NBD-cAMP from EPAC2 (unknown origin) by fluorescence plate reader analysis
[2] = molecular target: T2, Rap guanine nucleotide exchange factor 3 (Homo sapiens, UniProt O95398); assay: Inhibition of EPAC1 (unknown origin) assessed as cAMP-mediated GEF activity
T2 sequence (O95398 whole entry): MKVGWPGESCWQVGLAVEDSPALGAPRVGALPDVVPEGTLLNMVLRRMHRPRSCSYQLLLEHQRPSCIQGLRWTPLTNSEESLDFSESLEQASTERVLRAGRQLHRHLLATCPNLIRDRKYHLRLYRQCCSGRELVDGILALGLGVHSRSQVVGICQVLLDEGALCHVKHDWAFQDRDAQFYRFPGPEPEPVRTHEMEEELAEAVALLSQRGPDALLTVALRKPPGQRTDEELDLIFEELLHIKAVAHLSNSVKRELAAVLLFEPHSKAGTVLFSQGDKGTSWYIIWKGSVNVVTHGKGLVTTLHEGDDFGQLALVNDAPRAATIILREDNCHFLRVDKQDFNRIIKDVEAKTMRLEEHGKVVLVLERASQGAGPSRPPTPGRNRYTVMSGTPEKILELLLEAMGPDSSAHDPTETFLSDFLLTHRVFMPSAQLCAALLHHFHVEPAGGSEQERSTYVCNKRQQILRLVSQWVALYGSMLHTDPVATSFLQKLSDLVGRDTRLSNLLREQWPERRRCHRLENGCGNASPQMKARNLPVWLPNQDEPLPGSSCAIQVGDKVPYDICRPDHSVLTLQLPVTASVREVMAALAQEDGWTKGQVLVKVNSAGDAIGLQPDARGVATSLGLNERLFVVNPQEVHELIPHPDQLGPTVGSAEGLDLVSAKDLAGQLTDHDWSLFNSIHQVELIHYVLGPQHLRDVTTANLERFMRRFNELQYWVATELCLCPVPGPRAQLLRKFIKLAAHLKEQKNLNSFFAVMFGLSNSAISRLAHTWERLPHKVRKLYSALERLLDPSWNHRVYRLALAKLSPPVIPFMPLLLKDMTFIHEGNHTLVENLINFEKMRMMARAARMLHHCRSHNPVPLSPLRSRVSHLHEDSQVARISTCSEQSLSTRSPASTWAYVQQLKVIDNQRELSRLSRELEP

[3] = molecular target: T1, Rap guanine nucleotide exchange factor 4; assay: Inhibition of EPAC2 (unknown origin)

T1 sequence (Q8WZA2 whole entry): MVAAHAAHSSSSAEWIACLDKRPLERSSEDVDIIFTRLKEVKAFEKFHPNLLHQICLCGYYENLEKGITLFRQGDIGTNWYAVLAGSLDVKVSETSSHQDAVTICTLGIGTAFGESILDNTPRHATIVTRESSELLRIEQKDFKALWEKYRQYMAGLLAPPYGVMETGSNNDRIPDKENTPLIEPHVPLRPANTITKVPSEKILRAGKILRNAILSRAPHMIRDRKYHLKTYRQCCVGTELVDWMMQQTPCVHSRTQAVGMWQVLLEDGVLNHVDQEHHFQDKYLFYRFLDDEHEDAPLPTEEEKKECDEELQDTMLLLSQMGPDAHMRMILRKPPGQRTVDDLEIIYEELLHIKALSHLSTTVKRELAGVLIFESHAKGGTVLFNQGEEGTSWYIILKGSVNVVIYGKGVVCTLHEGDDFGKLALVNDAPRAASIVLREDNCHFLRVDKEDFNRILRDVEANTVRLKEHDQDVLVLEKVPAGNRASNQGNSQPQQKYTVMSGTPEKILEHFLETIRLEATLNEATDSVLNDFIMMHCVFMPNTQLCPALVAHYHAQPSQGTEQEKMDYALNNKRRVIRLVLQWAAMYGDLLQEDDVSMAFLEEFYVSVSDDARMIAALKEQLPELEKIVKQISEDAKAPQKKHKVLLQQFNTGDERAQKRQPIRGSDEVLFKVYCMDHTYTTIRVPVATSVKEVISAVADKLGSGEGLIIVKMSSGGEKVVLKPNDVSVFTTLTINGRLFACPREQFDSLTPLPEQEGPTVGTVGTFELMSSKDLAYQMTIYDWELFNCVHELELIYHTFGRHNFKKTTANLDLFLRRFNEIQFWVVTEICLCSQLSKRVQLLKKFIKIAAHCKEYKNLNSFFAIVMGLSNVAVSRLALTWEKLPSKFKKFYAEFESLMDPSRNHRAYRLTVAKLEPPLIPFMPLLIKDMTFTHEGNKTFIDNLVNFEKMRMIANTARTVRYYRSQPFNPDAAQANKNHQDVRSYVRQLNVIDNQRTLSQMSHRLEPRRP

IC50 [1] [µM]	IC50 [2] [µM]	IC50 [3] [µM]	SMILES
1.7			O=S(=O)(O)c1ccc2c(/N=N/c3c(O)ccc4ccccc34)cccc2c1
7	3.2		CC(C)(C)c1cc(C(=O)/C(C#N)=N/Nc2cccc(Cl)c2)no1
3.8			O=C1C=CC2=C(Oc3c(ccc(O)c3O)/C2=C/C=C(O)O)C1=O
7.9			N#Cc1c(NC(=O)C(F)(F)F)sc2c3c(=O)c4ccccc4c(=O)c=3oc3ccccc3c12
		0.6	COCCC[n+]1c(C)csc1Nc1c(C)cc(C)cc1C
